This passage reports TGI and GI50 results from PubChem BioAssay (NCI).

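Five compound concentrations were applied to cells in 96-well plates for 48 hours; endpoints were derived by simple linear interpolation of the resulting dose-response curve. GI50 is the concentration that inhibits growth by half. At the TGI there is no net growth.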

Common to all, as to test: DTP human tumour cell line panel, 48 h
The test system of experiment [1] is OVCAR-5 ovarian.
Experiment [2] concerns ACHN renal.
Experiment [3] relates to NCI-H460 lung.
Experiment [4] deals with SK-MEL-28 melanoma.
The subject of experiment [5] is SW-620 colon.
Experiment [6] relates to MDA-MB-435.
Experiment [7] has as its system COLO 205 colon.
In experiment [8] the test system is T-47D breast.
The test system of experiment [9] is 786-0 renal.
In experiment [10] the test system is HCT-15 colon.
Experiment [11] deals with IGROV1 ovarian.
Experiment [12] has as its system UO-31 renal.
Experiment [13] has as its system MOLT-4 leukemia.
Experiment [14] deals with HCT-116 colon.
Experiment [15] has as its system SK-OV-3 ovarian.
Experiment [16] has as its system SF-268 CNS.
The test system of experiment [17] is BT-549 breast.
Experiment [18] has as its system HS 578T breast.

In the case of `CN(C(=O)C1=CCC2(CC1)OCCO2)c1ccccc1I`, the TGI in experiment [1], in experiment [2], in experiment [3], in [4], in experiment [5] and in experiment [6] was over 100 µM each time. Also, the total growth inhibition concentration (TGI) in [7], in [8], in [9], in [10], in experiment [11] and in experiment [12] was over 100 µM throughout. The TGI in experiment [13], in [14] and in experiment [15] was over 100 µM throughout.

Regarding `CN(C)c1snc2c1c(=O)n(C)c(=O)n2C`, the concentration for total growth inhibition (TGI) in experiment [1], in experiment [2], in experiment [3], in experiment [4], in experiment [5] and in experiment [7] was over 100 µM in each case. For the same compound, the TGI in experiment [9], in [10], in experiment [11], in experiment [12], in experiment [16] and in experiment [13] was over 100 µM in each case. The TGI in experiment [14] and in experiment [15] was over 100 µM in each case.

As for `O=S(=O)(SC1=NCCN1)c1cccc2ccccc12`, the total growth inhibition concentration (TGI) in [1] is 93.5 µM; in experiment [2], 70.5 µM; in experiment [3] it was 84.3 µM; in [4], over 100 µM; in experiment [5] it was over 100 µM; in experiment [6], over 100 µM. In addition, the total growth inhibition concentration (TGI) in experiment [7] is 34.4 µM; in [17] it was 76 µM; in [9] it was 74.9 µM; in [10] it was over 100 µM; in experiment [11], 89.9 µM; in experiment [12] it was over 100 µM. Besides, the TGI in experiment [13] was 95.9 µM; in [14] it was over 100 µM; in experiment [15], 45.7 µM.

Regarding `O=C(NC(Cc1cnc[nH]1)C(=O)N1CCCC1)C1CCCC1` (stereo not drawn), the total growth inhibition concentration (TGI) in [1], in [2], in experiment [3], in experiment [4], in experiment [5] and in experiment [6] was over 100 µM throughout. Further, the total growth inhibition concentration (TGI) in [18], in [7], in experiment [17], in [9], in experiment [10] and in experiment [11] was over 100 µM each time. The total growth inhibition concentration (TGI) in experiment [12], in experiment [13], in [14] and in experiment [15] was over 100 µM each time.

For the compound `COc1nc2c(c(=O)n1C)N=C(c1ccccc1)[C@H](C(CC(=O)c1ccccc1)c1ccccc1)C(c1ccccc1)N2` (stereo partly drawn), the TGI in [1], in experiment [2], in experiment [4], in experiment [5], in experiment [6] and in [7] was over 100 µM throughout. Further, the concentration for total growth inhibition (TGI) in [17] was over 100 µM; in experiment [9] it was over 100 µM; in [11] it was over 100 µM; in experiment [12], over 100 µM; in experiment [13], 57.1 µM; in experiment [14], over 100 µM. The compound also returned a total growth inhibition concentration (TGI) in [15] of over 100 µM.

For the compound `C/C=C1\CN2CCc3c([nH]c4ccccc34)C2C=C1CCO` (stereo not drawn), the total growth inhibition concentration (TGI) in [1], in [2], in experiment [3], in [4], in experiment [5] and in experiment [7] was over 340 µM in each case. Moreover, the TGI in experiment [9], in [10], in experiment [11], in experiment [16], in experiment [13] and in [14] was over 340 µM throughout. The TGI in experiment [15] was over 340 µM.

For `O=C1NNC2NC(=O)C3(NN2C1=O)c1ccccc1-c1ccccc13` (stereo not drawn), the TGI in experiment [1], in experiment [2], in experiment [3], in [5], in experiment [6] and in experiment [18] was over 100 µM throughout. The total growth inhibition concentration (TGI) in experiment [7], in [17], in [9], in [10], in experiment [11] and in experiment [12] was over 100 µM each time. Further, the TGI in [16], in experiment [14] and in experiment [15] was over 100 µM each time.

As to `Nc1ccc(C23CC4CC(C2)CC(c2ccc(N)cc2)(C4)C3)cc1`, the TGI in [1] was 61.4 µM; in [2], over 100 µM; in experiment [3], over 100 µM; in [4] it was over 100 µM; in [5], 28 µM; in experiment [6], over 100 µM. Moreover, the TGI was 52.5 µM in experiment [7]; over 100 µM in [17]; over 100 µM in [9]; over 100 µM in experiment [10]; over 100 µM in experiment [11]; over 100 µM in [12]. Moreover, the TGI in experiment [16] was over 100 µM; in experiment [13] it was 28.4 µM; in experiment [14], over 100 µM.

On to `O=c1cc(N=Nc2ccc(Cl)c(Cl)c2)[nH]c(=O)[nH]1`, for which the TGI in experiment [1] came to 11.2 µM; in experiment [2], 2.98 µM; in [3], 7.46 µM; in [4] it was 3.3 µM; in experiment [5], 3.26 µM; in experiment [6], 17.6 µM. For the same compound, the TGI in experiment [18] turned out to be 13.1 µM; in [7], 3.36 µM; in experiment [17], 4.77 µM; in experiment [9], 2.86 µM; in [10], 3.31 µM; in experiment [11], 4.31 µM. The TGI was 4.93 µM in experiment [12]; 7.57 µM in [16]; 6.48 µM in experiment [13]; 3.21 µM in [14]; 30 µM in experiment [15].

Take `COC(=O)C(Br)C1CCc2ccccc21` (stereo not drawn): the TGI in experiment [1], in experiment [2], in experiment [3], in [4], in [5] and in [7] was over 100 µM throughout. Further, the total growth inhibition concentration (TGI) in experiment [9], in experiment [10], in experiment [11], in experiment [12], in [16] and in experiment [13] was over 100 µM each time. Also, the concentration for total growth inhibition (TGI) in experiment [14] and in experiment [15] was over 100 µM in each case.

In the case of `COc1ccc(/C(=C/n2ccnc2)C(O)c2ccc(OC)c(OC)c2)cc1OC` (stereo not drawn), the TGI in [1], in experiment [3], in experiment [4], in [5], in [7] and in [9] was over 100 µM throughout. Further, the TGI in [10], in experiment [11], in experiment [12], in experiment [16], in experiment [13] and in experiment [15] was over 100 µM in each case.

Consider `CCN(CC)c1ccc(/C=C/C(=O)c2cc(C(C)(C)C)c(O)c(C(C)(C)C)c2)cc1`, for which the concentration for total growth inhibition (TGI) in experiment [1] is over 44.8 µM; in [2], over 100 µM; in [3], 38.2 µM; in experiment [4], over 100 µM; in [5], over 100 µM; in experiment [6], 13.3 µM. Moreover, the concentration for total growth inhibition (TGI) in experiment [18] was over 39.9 µM; in [7], 14.7 µM; in experiment [17], over 100 µM; in experiment [9], over 81.2 µM; in experiment [10] it was over 100 µM; in experiment [11], over 100 µM. Moreover, the TGI is over 100 µM in [12]; over 52.9 µM in [16]; over 100 µM in experiment [13]; over 39.1 µM in [14]; over 100 µM in experiment [15].

For `c1ccc(C(=NCCC2CNc3ccccc32)c2ccccc2)cc1` (stereo not drawn), the TGI in experiment [1], in experiment [2], in experiment [3], in experiment [4], in [5] and in [6] was over 100 µM each time. Besides, the TGI in experiment [18], in experiment [7], in experiment [17], in experiment [9], in experiment [10] and in experiment [11] was over 100 µM throughout. The TGI in experiment [12], in experiment [13], in experiment [14] and in experiment [15] was over 100 µM in each case.

In the case of `COC(=O)C(C(=O)C(=O)Nc1cccc([N+](=O)[O-])c1)c1nc2ccc([N+](=O)[O-])cc2[nH]c1=O` (stereo not drawn), the total growth inhibition concentration (TGI) in experiment [1], in experiment [2], in experiment [3], in experiment [4], in [5] and in experiment [7] was over 100 µM each time. Moreover, the total growth inhibition concentration (TGI) in experiment [9], in experiment [10], in experiment [11], in experiment [12], in experiment [16] and in experiment [13] was over 100 µM in each case. For the same compound, the TGI in experiment [14] and in experiment [15] was over 100 µM in each case.

On to `C#CCN(N=O)C(=O)NCCCCC(NC(C)=O)C(=O)NCc1ccccc1` (stereo not drawn), for which the TGI in experiment [1], in experiment [2], in experiment [3], in experiment [4], in experiment [5] and in [7] was over 100 µM in each case. Also, the TGI in experiment [9], in experiment [10], in experiment [11], in experiment [12], in experiment [16] and in experiment [13] was over 100 µM throughout. Also, the TGI in experiment [14] and in [15] was over 100 µM each time.

Take `O=c1cc(-c2ccco2)[nH]c2cc3c(cc12)OCO3`: the concentration for total growth inhibition (TGI) is over 100 µM in experiment [2]; over 100 µM in experiment [3]; over 100 µM in experiment [4]; over 100 µM in [5]; 78.5 µM in experiment [7]; over 100 µM in experiment [9]. Also, the concentration for total growth inhibition (TGI) in experiment [10], in experiment [11], in [12], in [16], in experiment [13] and in experiment [14] was over 100 µM each time. The GI50 in experiment [16] is 42.1 µM; in experiment [14] it was 39.9 µM.

For `O=C1c2ccccc2C(=O)C1C(c1ccc(F)cc1)C1C(=O)c2ccccc2C1=O`, the TGI in experiment [1], in [2], in [3], in [4], in experiment [5] and in experiment [7] was over 100 µM in each case. Besides, the TGI in [9], in experiment [10], in experiment [12], in experiment [16], in [13] and in experiment [14] was over 100 µM each time. In [15], the total growth inhibition concentration (TGI) was over 100 µM.

As for `C=CCN1/C(=C2\SC(=S)N(c3ccc(C)cc3)C2=O)Sc2c1nc[nH]c2=O`, the concentration for total growth inhibition (TGI) in experiment [1], in experiment [2], in experiment [3], in experiment [4], in [5] and in experiment [7] was over 100 µM throughout. In addition, the TGI in experiment [9], in experiment [10], in [11], in [12], in experiment [16] and in [13] was over 100 µM throughout. Moreover, the TGI in experiment [14] and in experiment [15] was over 100 µM in each case.

Regarding `CC1=NN(c2nc(N)nc(C/C(N)=N/O)n2)C(C)(C)C1`, the total growth inhibition concentration (TGI) in experiment [1], in experiment [2], in experiment [3], in experiment [4], in [5] and in experiment [6] was over 100 µM in each case. Moreover, the concentration for total growth inhibition (TGI) in [18], in experiment [7], in experiment [17], in experiment [9], in experiment [10] and in experiment [11] was over 100 µM in each case. Also, the TGI in experiment [12], in experiment [16], in experiment [13], in experiment [14] and in experiment [15] was over 100 µM in each case.

What is called TGI is the concentration at which net growth stops. A low value points to greater sensitivity of the cells. By GI50 is commonly meant the concentration giving 50% growth inhibition.
